11 compounds from PubChem BioAssay (NCI) can be followed below.

Test systems include ACHN renal; CAKI-1 renal; COLO 205 colon; HCT-116 colon; KM12 colon; LOX IMVI melanoma; NCI-H226 lung; U251 CNS; UACC-62 melanoma; HOP-92 NSCLC.
Holding throughout (assay): inhibition of tumour cell growth, NCI panel, 48 h

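Exposure lasted 48 hours, with cells grown in 96-well plates and compounds tested at five concentrations. The concentration for 50% growth inhibition is given as GI50. TGI: total growth inhibition.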 Where only a bound is given, the exact number is not on record here.

For `N#C/C(=C\c1ccc2ccccc2c1)C(=O)c1ccccc1`, the TGI was over 100 µM in the experiment on ACHN renal; over 100 µM with CAKI-1 renal; over 100 µM with COLO 205 colon; over 80.4 µM in the experiment on HCT-116 colon; over 100 µM in the experiment with KM12 colon; 52 µM in the experiment on LOX IMVI melanoma. The results for the TGI with NCI-H226 lung, in the experiment on U251 CNS and in the experiment on UACC-62 melanoma were over 100 µM, 32.9 µM and over 78.5 µM, respectively.

Regarding `Cc1cc2c(=O)c3ccccc3[nH]c2c(C(N)=O)c1C`, the TGI in the experiment on ACHN renal, in the experiment with CAKI-1 renal, in the experiment with COLO 205 colon, in the experiment on HCT-116 colon, in the experiment on KM12 colon and in the experiment on LOX IMVI melanoma was over 100 µM in each case. Besides, the TGI in the experiment with NCI-H226 lung, with U251 CNS and with UACC-62 melanoma was over 100 µM throughout.

For the compound `O=C(/C(=C/c1ccc(Cl)cc1)c1ccccc1)c1ccccc1`, the TGI in the experiment on ACHN renal worked out at 39.5 µM; in the experiment with COLO 205 colon it was 33 µM; with HCT-116 colon, 27.1 µM; in the experiment on HOP-92 NSCLC it was 41.7 µM; in the experiment on KM12 colon, 30.5 µM; in the experiment with LOX IMVI melanoma, 29 µM. In addition, the figures for the TGI in the experiment on NCI-H226 lung, with U251 CNS and with UACC-62 melanoma were 31.7 µM, 33.9 µM and 29.4 µM, respectively.

On to `NC1CCN(Cc2ccccc2)CC1`, for which the GI50 in the experiment with ACHN renal, in the experiment with CAKI-1 renal, with COLO 205 colon, with HCT-116 colon, in the experiment on HOP-92 NSCLC and in the experiment on KM12 colon was over 100 µM each time. For the same compound, the GI50 in the experiment on LOX IMVI melanoma, in the experiment with U251 CNS and in the experiment with UACC-62 melanoma was over 100 µM each time. The TGI with ACHN renal, with CAKI-1 renal, in the experiment with COLO 205 colon, in the experiment on HCT-116 colon, with HOP-92 NSCLC and in the experiment on KM12 colon was over 100 µM throughout. In addition, the TGI in the experiment on LOX IMVI melanoma, with U251 CNS and in the experiment with UACC-62 melanoma was over 100 µM each time.

Consider `Cc1cc(N[C@@H]2CCC[C@H](Nc3ccnc4cc(Cl)ccc34)C2)nc(N2CCCCCC2)n1`, for which the GI50 in the experiment with ACHN renal was 1.83 µM; in the experiment with COLO 205 colon, 1.36 µM; with HCT-116 colon it was 1.05 µM; in the experiment with HOP-92 NSCLC, 1.62 µM; in the experiment on KM12 colon, 2.06 µM; in the experiment with LOX IMVI melanoma, 1.43 µM. Also, the GI50 in the experiment on NCI-H226 lung is 2.42 µM; in the experiment on U251 CNS, 1.73 µM; in the experiment on UACC-62 melanoma it was 1.81 µM. Moreover, the TGI in the experiment with ACHN renal is 3.82 µM; in the experiment on COLO 205 colon it was 2.89 µM; with HCT-116 colon, 2.36 µM; in the experiment with HOP-92 NSCLC it was 3.36 µM; in the experiment on KM12 colon, 4.48 µM; in the experiment with LOX IMVI melanoma, 2.96 µM. Also, the TGI was 6.06 µM with NCI-H226 lung, 3.41 µM with U251 CNS and 3.34 µM in the experiment on UACC-62 melanoma.

Regarding `Cc1ccccc1C(=O)c1cc(O)ccc1O`, the TGI in the experiment on ACHN renal, with CAKI-1 renal, with COLO 205 colon, with HCT-116 colon, in the experiment on HOP-92 NSCLC and with KM12 colon was over 100 µM throughout. Besides, the TGI in the experiment with NCI-H226 lung, in the experiment with U251 CNS and in the experiment on UACC-62 melanoma was over 100 µM in each case.

As to `O=C(CC1C(=O)Nc2ccccc2S1=O)Nc1cc(Cl)ccc1Cl` (configuration not stated), the TGI in the experiment with ACHN renal, with CAKI-1 renal, with HCT-116 colon, with HOP-92 NSCLC, with LOX IMVI melanoma and with NCI-H226 lung was over 100 µM throughout. Also, the TGI in the experiment on U251 CNS and in the experiment with UACC-62 melanoma was over 100 µM each time.

`COc1ccc2c(c1OCC(=O)O)C(=O)C(CCC(=O)O)CC2` (configuration not stated): the TGI with ACHN renal, with CAKI-1 renal, in the experiment with COLO 205 colon, in the experiment with HCT-116 colon, in the experiment with LOX IMVI melanoma and with U251 CNS was over 100 µM throughout. Also, in the experiment with UACC-62 melanoma, the TGI was over 100 µM.

In the case of `COCC(OC)C(CC=C(C#N)C#N)OC` (configuration not stated), the TGI in the experiment with ACHN renal, in the experiment with CAKI-1 renal, with COLO 205 colon, in the experiment on HCT-116 colon, in the experiment with HOP-92 NSCLC and in the experiment with KM12 colon was over 100 µM in each case. In addition, the TGI in the experiment with LOX IMVI melanoma, with U251 CNS and in the experiment with UACC-62 melanoma was over 100 µM each time.

Take `CC1(C)OC2C(CO[Si](C)(C)C(C)(C)C)OC(n3c(I)c(C#C[Si](C)(C)C)c(=O)[nH]c3=O)C2O1` (configuration not stated): the GI50 in the experiment on ACHN renal was 12.9 µM; with COLO 205 colon, 1.59 µM; with HCT-116 colon, 1.66 µM; in the experiment on HOP-92 NSCLC, 0.0445 µM; in the experiment with KM12 colon, 23.2 µM; in the experiment on LOX IMVI melanoma, 3.01 µM. Also, the GI50 in the experiment with NCI-H226 lung was 17 µM; in the experiment with U251 CNS, 19.4 µM; in the experiment with UACC-62 melanoma, 21.5 µM. In addition, the TGI in the experiment on ACHN renal worked out at 26.4 µM; in the experiment on COLO 205 colon, 2.94 µM; with HCT-116 colon, 3.37 µM; in the experiment on HOP-92 NSCLC, 14.1 µM; with KM12 colon, 92.7 µM; in the experiment on LOX IMVI melanoma, 11.1 µM. Besides, the TGI was determined as 34 µM in the experiment with NCI-H226 lung, 65.7 µM in the experiment on U251 CNS and 50.5 µM in the experiment on UACC-62 melanoma.

As to `COc1ccc(-c2nnc3n(C)c(=O)c4ccccc4n23)cc1N`, the GI50 was 17.3 µM in the experiment with ACHN renal; 1.95 µM in the experiment with CAKI-1 renal; 0.0469 µM in the experiment on COLO 205 colon; 0.0571 µM in the experiment on HCT-116 colon; 10.9 µM in the experiment with HOP-92 NSCLC; 0.0499 µM with KM12 colon. Moreover, the GI50 in the experiment on LOX IMVI melanoma is 3.01 µM; in the experiment on NCI-H226 lung it was over 100 µM; in the experiment with U251 CNS, 1.63 µM. The TGI with ACHN renal was over 100 µM; in the experiment on CAKI-1 renal, over 100 µM; in the experiment with COLO 205 colon it was 4.44 µM; in the experiment with HCT-116 colon, over 100 µM; in the experiment on HOP-92 NSCLC, 99.5 µM; with KM12 colon, over 100 µM. Moreover, the TGI in the experiment with LOX IMVI melanoma, in the experiment on NCI-H226 lung and in the experiment with U251 CNS was over 100 µM in each case.
